Test results: PubChem BioAssay AID248 (DTP/NCI, 2004)
Values joined by “and” are separate entries in the source; they are usually repeats but may differ in a detail not shown here. Identical values can stand only once. Toxic doses and inconclusive results are not listed. No stated cut-off is given here; in the data, active means T/C of 150% or more; inactive means T/C below 125%.

Tested on: L1210 leukemia ip in BDF1 mice, survival T/C
Test: NCI In Vivo Anticancer Drug Screen. Data for tumor model L1210 Leukemia (intraperitoneal) in B6D2F1 (BDF1) mice
Settings: endpoint: mean survival time, higher = longer survival
Summary of the method: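 In this screen, tumor-bearing mice given compound are compared to those given vehicle, and their survival values are reported as a treated-to-control quotient.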

[1] = dose: 50.0 mg/kg/injection, schedule: Q01DX009 (ip), vehicle: saline
[2] = dose: 100.0 mg/kg/injection, schedule: Q01DX009 (ip), vehicle: saline
[3] = dose: 100.0 mg/kg/injection, schedule: Q04DX003 (ip), vehicle: saline
[4] = dose: 200.0 mg/kg/injection, schedule: Q01DX009 (ip), vehicle: saline
[5] = dose: 200.0 mg/kg/injection, schedule: Q04DX003 (ip), vehicle: saline
[6] = dose: 400.0 mg/kg/injection, schedule: Q01DX009 (ip), vehicle: saline
[7] = dose: 400.0 mg/kg/injection, schedule: Q04DX003 (ip), vehicle: saline
[8] = dose: 100.0 mg/kg/injection, schedule: Q01DX001 (ip), vehicle: saline
[9] = dose: 200.0 mg/kg/injection, schedule: Q01DX001 (ip), vehicle: saline
[10] = dose: 400.0 mg/kg/injection, schedule: Q01DX001 (ip), vehicle: saline
[11] = dose: 100.0 mg/kg/injection, schedule: Q04DX002 (ip), vehicle: Klucel (hydroxypropylcellulose) (HPC)
[12] = dose: 200.0 mg/kg/injection, schedule: Q04DX002 (ip), vehicle: Klucel (hydroxypropylcellulose) (HPC)
[13] = dose: 400.0 mg/kg/injection, schedule: Q04DX002 (ip), vehicle: Klucel (hydroxypropylcellulose) (HPC)
[14] = dose: 100.0 mg/kg/injection, schedule: Q01DX009 (ip), vehicle: Klucel (hydroxypropylcellulose) (HPC)
[15] = dose: 100.0 mg/kg/injection, schedule: Q04DX003 (ip), vehicle: Klucel (hydroxypropylcellulose) (HPC)
[16] = dose: 200.0 mg/kg/injection, schedule: Q01DX009 (ip), vehicle: Klucel (hydroxypropylcellulose) (HPC)
[17] = dose: 200.0 mg/kg/injection, schedule: Q04DX003 (ip), vehicle: Klucel (hydroxypropylcellulose) (HPC)
[18] = dose: 50.0 mg/kg/injection, schedule: Q01DX009 (ip), vehicle: Klucel (hydroxypropylcellulose) (HPC)
[19] = dose: 100.0 mg/kg/injection, schedule: Q01DX009 (ip), vehicle: saline with Tween-80
[20] = dose: 200.0 mg/kg/injection, schedule: Q01DX009 (ip), vehicle: saline with Tween-80
[21] = dose: 400.0 mg/kg/injection, schedule: Q01DX009 (ip), vehicle: saline with Tween-80
[22] = dose: 100.0 mg/kg/injection, schedule: Q01DX001 (ip), vehicle: saline with Tween-80
[23] = dose: 200.0 mg/kg/injection, schedule: Q01DX001 (ip), vehicle: saline with Tween-80

Measured: T/C

O=C(N[C@@H](c1ccccc1)[C@H](N=Cc1ccccc1)c1ccccc1)c1ccccc1
inactive: [1] 93 % of control | dose: 50.0 mg/kg/injection, schedule: Q04DX003 (ip), vehicle: saline 95 % of control | [2] 90 % of control | [3] 86 % of control and 92 % of control | [4] 87 % of control | [5] 94 % of control | [6] 95 % of control and 87 % of control | [7] 86 % of control and 92 % of control

COC(=O)CNC(=O)C1CSC(C)(C)N1 (centres undefined)
inactive: dose: 100.0 mg/kg/injection, schedule: Q01DX001 (ip), vehicle: steriod suspending solution 100 % of control | dose: 200.0 mg/kg/injection, schedule: Q01DX001 (ip), vehicle: steriod suspending solution 97 % of control | dose: 400.0 mg/kg/injection, schedule: Q01DX001 (ip), vehicle: steriod suspending solution 100 % of control

O=[N+]([O-])c1ccc2[nH]c(O)c(N=Nc3ccccc3[N+](=O)[O-])c2c1
inactive: [8] 98 % of control | [9] 96 % of control | [10] 105 % of control

CCOC(=O)/C=C/c1c(C)[nH]c(=O)[nH]c1=O
inactive: [8] 94 % of control | dose: 150.0 mg/kg/injection, schedule: Q04DX003 (ip), vehicle: saline 102 % of control | [9] 93 % of control | dose: 300.0 mg/kg/injection, schedule: Q04DX003 (ip), vehicle: saline 96 % of control | [10] 93 % of control | dose: 600.0 mg/kg/injection, schedule: Q04DX003 (ip), vehicle: saline 103 % of control

OCC(O)C(O)C(O)C(O)c1nc2ccccc2[nH]1 (centres undefined)
inactive: [11] 105 % of control | [12] 87 % of control | [13] 97 % of control

Cc1ccc(NC(=O)COc2ccccc2)c(C)c1
inactive: [11] 107 % of control | [12] 104 % of control | [13] 100 % of control

O=C(c1ccccc1)C1C(c2ccccc2)N1C(=O)c1ccccc1 (centres undefined)
inactive: [14] 94 % of control | [15] 102 % of control | [16] 101 % of control | [17] 90 % of control | dose: 400.0 mg/kg/injection, schedule: Q01DX009 (ip), vehicle: Klucel (hydroxypropylcellulose) (HPC) 89 % of control | dose: 400.0 mg/kg/injection, schedule: Q04DX003 (ip), vehicle: Klucel (hydroxypropylcellulose) (HPC) 90 % of control

COC(=O)C1Cc2c([nH]c3ccccc23)CN1 (centres undefined)
inactive: dose: 9.0 mg/kg/injection, schedule: Q01DX009 (ip), vehicle: saline 95 % of control | dose: 9.0 mg/kg/injection, schedule: Q04DX003 (ip), vehicle: saline 100 % of control | dose: 18.0 mg/kg/injection, schedule: Q01DX009 (ip), vehicle: saline 101 % of control | dose: 18.0 mg/kg/injection, schedule: Q04DX003 (ip), vehicle: saline 98 % of control | dose: 37.0 mg/kg/injection, schedule: Q01DX009 (ip), vehicle: saline 105 % of control | dose: 37.0 mg/kg/injection, schedule: Q04DX003 (ip), vehicle: saline 93 % of control

NC(=O)NCc1ccccc1
inactive: [8] 105 % of control | [9] 97 % of control | [10] 103 % of control

Clc1ccc(C(Cl)(Cl)Cl)cc1Cl
inactive: [18] 110 % of control | [14] 103 % of control | [15] 106 % of control | [16] 98 % of control | [17] 106 % of control

O=S1(=O)CCCO1
inactive: dose: 100.0 mg/kg/injection, schedule: Q01DX009 (ip), vehicle: other 103 % of control | dose: 200.0 mg/kg/injection, schedule: Q01DX009 (ip), vehicle: other 109 % of control

COC1OC(CN2CC2)C2OC(C)(C)OC12 (centres undefined)
inactive: dose: 75.0 mg/kg/injection, schedule: Q01DX001 (ip), vehicle: carboxymethylcellulose (CMC) 102 % of control

O=[N+]([O-])c1cc(O)ccc1Cl
inactive: [1] 93 % of control | [2] 102 % of control | dose: 100.0 mg/kg/injection, schedule: Q04DX003 (ip), vehicle: alcohol 104 % of control | [4] 87 % of control

CCCCc1c(C)[nH]c(=S)[nH]c1=O
inactive: [19] 95 % of control | [20] 100 % of control | [21] 91 % of control

O=C(O)C(C(=O)c1cccc([N+](=O)[O-])c1)C(=O)c1cccc([N+](=O)[O-])c1
inactive: dose: 200.0 mg/kg/injection, schedule: Q01DX001 (ip), vehicle: carboxymethylcellulose (CMC) 100 % of control | dose: 400.0 mg/kg/injection, schedule: Q01DX001 (ip), vehicle: carboxymethylcellulose (CMC) 94 % of control

CCC(=O)c1ccc(N=Nc2c(N)nc(N)nc2N)cc1
inactive: [8] 110 % of control | [9] 94 % of control

CCCCCCCCCC(C)CCCCC (centres undefined)
inactive: dose: 25.0 mg/kg/injection, schedule: Q01DX001 (ip), vehicle: saline with Tween-80 93 % of control | dose: 50.0 mg/kg/injection, schedule: Q01DX001 (ip), vehicle: saline with Tween-80 98 % of control | [22] 95 % of control and 97 % of control | [23] 98 % of control

NC(=O)CC[n+]1cccc(C(=O)O)c1
inactive: [2] 93 % of control | [3] 94 % of control | [4] 88 % of control | [5] 93 % of control | [6] 92 % of control | [7] 94 % of control

Cc1ccc(OC/C=C/CS(=O)(=O)c2ccc(Cl)cc2)cc1
inactive: [18] 98 % of control | dose: 75.0 mg/kg/injection, schedule: Q01DX001 (ip), vehicle: Klucel (hydroxypropylcellulose) (HPC) 96 % of control | [14] 95 % of control | dose: 150.0 mg/kg/injection, schedule: Q01DX001 (ip), vehicle: Klucel (hydroxypropylcellulose) (HPC) 96 % of control | [16] 98 % of control | dose: 300.0 mg/kg/injection, schedule: Q01DX001 (ip), vehicle: Klucel (hydroxypropylcellulose) (HPC) 94 % of control

CCCCCCCCC1SC1CCCCCCCC(=O)OCCOCCOCC (centres undefined)
inactive: [19] 95 % of control | [20] 92 % of control | [21] 95 % of control

CC(=O)n1c2c(n(C(C)=O)c1=O)CCCC2
inactive: [22] 102 % of control | [23] 98 % of control | dose: 400.0 mg/kg/injection, schedule: Q01DX001 (ip), vehicle: saline with Tween-80 102 % of control

CC1=NC(C#N)=C(C#N)N=C(C)C1
inactive: dose: 6.25 mg/kg/injection, schedule: Q01DX009 (ip), vehicle: Klucel (hydroxypropylcellulose) (HPC) 107 % of control | dose: 12.5 mg/kg/injection, schedule: Q01DX009 (ip), vehicle: Klucel (hydroxypropylcellulose) (HPC) 98 % of control | dose: 25.0 mg/kg/injection, schedule: Q01DX009 (ip), vehicle: Klucel (hydroxypropylcellulose) (HPC) 119 % of control | [18] 107 % of control

CCCCn1cnc2c(SSc3ncnc4c3ncn4CCCC)ncnc21
inactive: dose: 37.5 mg/kg/injection, schedule: Q01DX Z (ip), vehicle: saline 109 % of control | dose: 150.0 mg/kg/injection, schedule: Q01DX Z (ip), vehicle: saline 124 % of control | dose: 166.0 mg/kg/injection, schedule: Q04DX003 (ip), vehicle: gum acacia 121 % of control
